According to patent publication US20260094266A1, “DIGITAL SYSTEM FOR CELL ASSAYS USING LABEL FREE MICROSCOPY” (NANOLIVE SA, priority 2022, published 2026):

Legend:
Type in all cases: cell-based
[1] = tested on: 3T3-L1-derived preadipocyte cells; assay: Live cell death assay (LCDA) benchmarked with live fluorescent cell death kit, camptothecin treatment; settings: 2.5 μM camptothecin added 4 hours before acquisition; imaged for 17.5 hours; versus without camptothecin
Excerpt: To validate the performance of the LCDA, the invention method was benchmarked with a state-of-the-art live fluorescent kit (FIG. 6). 3t3-derived preadipocytes were imaged on an optical diffraction tomography system combining RI recording and epifluorescence, with and without addition of camptothecin, a proapoptotic drug (FIG. 6). Annexin V-Cy5 and Nuclear Green DCS1 were used as fluorescent markers to detect apoptosis and necrosis, respectively. The RI images of the kit-stained cells were also analyzed with the LCDA. The cell death information provided by the fluorescent signals contained within the RI segmentation masks was then compared, with the LCDA results (FIG. 6, E and F).
3T3-L1-derived preadipocyte cells were seeded in a 35 mm dish at ˜30,000 cells/ml and let to grow for 48 h in DMEM supplemented with 10% FBS. 4 hours before starting the acquisition, the cells were treated with 2.5 μM camptothecin (abcam—ab120115) to induce apoptosis. 10 minutes before starting the acquisition, Annexin V-Cy5 and Nuclear Green DCS1 (abcam—ab14147, ab138905) were added to the medium, following the supplier's protocol. […]
RI images were then analyzed and plotted with the LCDA module's features. Fluorescence was quantified by measuring the mean intensity in each cell using RI segmentations using an independent image analysis tool. […]

HeLa cells = assay: LCDA quantification of Ebastine-induced cell death in HeLa cells (FIG. 7); settings: 50 uM Ebastin, treated right before acquisition; versus control well; 5 h post treatment
Excerpt: FIG. 7: Application of LCDA to quantify Ebastine-induced cell death—HeLa cells grown in two wells were used as (A) control and (B) treatment experiment.

[2] = tested on: 3T3-L1-derived preadipocyte cells; assay: LCDA quantification of Ebastin-induced cell death in 3T3-L1-derived preadipocytes; settings: 20 μM Ebastin added 1 hour before acquisition; versus untreated cells
Procedure: It was finally concluded by quantifying the capacity of another drug to kill cells, Ebastin, to validate the simplest of the uses of the LCDA. 3T3-L1-derived preadipocyte cells were seeded in 35 mm dish at ˜30,000 cells/ml and let to grow for 48 h in DMEM supplemented with 10% FBS.

Row | SMILES | death of cells (LCDA and Annexin V-Cy5 / Nuclear Green DCS1 fluorescence) [1] | number of dead cells predicted over time (cell death rate) (HeLa cells) | induced cell death over time (LCDA) [2]
1 | CC[C@@]1(O)C(=O)OCc2c1cc1n(c2=O)Cc2cc3ccccc3nc2-1 [camptothecin] | accelerates greatly the death of cells and results in the whole cell population dying by the end of the experiment |  | 
2 | CC(C)(C)c1ccc(C(=O)CCCN2CCC(OC(c3ccccc3)c3ccccc3)CC2)cc1 [Ebastin] |  | higher cell death rate in the treated condition already at 5 h post treatment | treated cells show a very clear curve of induced cell death
